Consider twelve compounds from patent US7071341B2, “α-Glucosidase inhibitors and their synthesis from a natural source” (Council of Scientific and Industrial Research, priority 2003, dated 2006).

One data set deals with yeast α-glucosidase. The data set is described as follows: α-glucosidase inhibitory assay by the chromogenic method. The data set is classed as biochemical. The settings on record: for IC50: yeast α-glucosidase [Sigma], substrate p-nitrophenyl-α-D-glucopyranoside, pH 7.00, absorbance at 405 nm; for α-glucosidase inhibitory potency compared with the standard drug 1-deoxy nojirimycin: comparison in words. On the procedure:
The α-glucosidase inhibitory assay was done by the chromogenic method. In brief 10 μl of test compounds dissolved in DMSO (5 mg/ml and subsequent dilutions) were incubated for 5 min. with 50 μl of yeast α-glucosidase [Sigma] enzyme prepared in 100 mM phosphate buffer (pH 7.00). After 5 minutes of incubation, 50 μl of 5 mM substrate (p-nitrophenyl-α-D-glucopyranoside [Sigma] prepared in the same buffer) was added. The pre-substrate and 5-min post-substrate addition absorbances were recorded at 405 nm spectrophotometrically. The increase in absorbance from pre-substrates addition to post substrates reaction were obtained.

Structures are written as SMILES. “Also recorded” adds a separate entry of the source.

In the case of `COc1ccc(C(=O)OC2Cc3ccc(O)c(O)c3OC2c2ccc(O)c(O)c2)cc1` (single isomer, unassigned; (-)) [Compound 4j, (−)-3-O-(p-methoxybenzoyl) mesquitol], the melting point (as a rule, the temperature of the solid-liquid transition) was 254 °C. Also, the half-inhibitory concentration (IC50) (as a rule, the concentration at which inhibition is half-maximal) against yeast α-glucosidase turned out to be 67.3 µM.

Take `CCCCCCCCCC(=O)O[C@H]1Cc2ccc(O)c(O)c2O[C@@H]1c1ccc(O)c(O)c1` [Compound 4d, (−)-3-O-Decanoyl mesquitol]: in the data set on yeast α-glucosidase (listed as decanoyl ester of (−) mesquitol), the “α-glucosidase inhibitory potency compared with the standard drug 1-deoxy nojirimycin” value is given as “more potent α-glucosidase inhibitors than the standard drug 1-deoxy nojirimycin; also recorded: more potent than the standard α-glucosidase inhibitor 1-deoxy nojirimycin”. For the same compound, at yeast α-glucosidase, the IC50 was determined as 13.5 µM.

`CCCCCCCCCCCCCCCC(=O)OC1Cc2ccc(O)c(O)c2OC1c1ccc(O)c(O)c1` (single isomer, unassigned; (-)) [Compound 4f, (−)-3-O-Palmitoyl mesquitol] gave a melting point of 87 °C. For the same compound, the “α-glucosidase inhibitory potency compared with the standard drug 1-deoxy nojirimycin” value in the data set with yeast α-glucosidase (listed as palmitoyl ester of (−) mesquitol) is listed as “more potent α-glucosidase inhibitors than the standard drug 1-deoxy nojirimycin; also recorded: more potent than the standard α-glucosidase inhibitor 1-deoxy nojirimycin”. The midpoint of inhibition against yeast α-glucosidase, the IC50, lay at 9.56 µM.

For the compound `CCCCCC(=O)OC1Cc2ccc(O)c(O)c2OC1c1ccc(O)c(O)c1` (single isomer, unassigned; (-)) [Compound 4c, (−)-3-O-hexanoyl mesquitol], the melting point turned out to be 81 °C. Moreover, the half-maximal inhibitory concentration (IC50) against yeast α-glucosidase was 49.3 µM.

In turn, `O=C(OC1Cc2ccc(O)c(O)c2OC1c1ccc(O)c(O)c1)c1ccccc1Cl` (single isomer, unassigned; (-)) [Compound 4I, (−)-3-O-(o-chlorobenzoyl) mesquitol] returned a melting point of 252 °C. The compound also showed an IC50 at yeast α-glucosidase of 43.3 µM.

`CC(=O)OC1Cc2ccc(O)c(O)c2OC1c1ccc(O)c(O)c1` (single isomer, unassigned; (-)) [Compound 4a, (−)-3-O-acetyl mesquitol] yielded a melting point of 78 °C. Besides, on yeast α-glucosidase, the concentration for half-maximal inhibition (IC50) turned out to be 46.3 µM.

As to `CCCCCCCCCCCCCCCCCC(=O)OC1Cc2ccc(O)c(O)c2OC1c1ccc(O)c(O)c1` (single isomer, unassigned; (-)) [Compound 4g, (−)-3-O-Steroyl mesquitol], the melting point turned out to be 90 °C. Also, on yeast α-glucosidase, the half-inhibitory concentration (IC50) is 54.5 µM.

`O=C(O[C@H]1Cc2ccc(O)c(O)c2O[C@@H]1c1ccc(O)c(O)c1)c1ccc(F)cc1` [Compound 4k, (−)-3-O-(p-flourobenzoyl) mesquitol]: the “α-glucosidase inhibitory potency compared with the standard drug 1-deoxy nojirimycin” value with yeast α-glucosidase (listed as p-flourobenzyl ester of (−) mesquitol) is on record as “more potent α-glucosidase inhibitor than the standard drug 1-deoxy nojirimycin”. The IC50 against yeast α-glucosidase was found to be 32.8 µM.

As to `CCCC(=O)OC1Cc2ccc(O)c(O)c2OC1c1ccc(O)c(O)c1` (single isomer, unassigned; (-)) [Compound 4b, (−)-3-O-butyryl mesquitol], the melting point is 80 °C. The compound further returned an IC50 at yeast α-glucosidase of 46.2 µM.

In turn, `Oc1ccc(C2Oc3c(ccc(O)c3O)CC2O)cc1O` (single isomer, unassigned; (-)) [Compound 1, (−)-mesquitol] gave a melting point of 252 °C. Further, in the data set on yeast α-glucosidase, the “α-glucosidase inhibitory activity, in words” value is on record as “potent α-glucosidase inhibitory activity” and the IC50 worked out at 82.3 µM.

The compound `O=C(OC1Cc2ccc(O)c(O)c2OC1c1ccc(O)c(O)c1)c1ccccc1` (single isomer, unassigned; (-)) [Compound 4h, (−)-3-O-benzoyl mesquitol] registered a melting point of 248 °C. Besides, the “α-glucosidase inhibitory potency compared with the standard drug 1-deoxy nojirimycin” value in the data set with yeast α-glucosidase (listed as benzoyl ester of (−) mesquitol) was “more potent α-glucosidase inhibitor than the standard drug 1-deoxy nojirimycin”. Also, it took 77.8 µM to reach half-maximal inhibition on yeast α-glucosidase (IC50).

Turning to `CCCCCCCCCCCCCC(=O)OC1Cc2ccc(O)c(O)c2OC1c1ccc(O)c(O)c1` (single isomer, unassigned; (-)) [Compound 4e, (−)-3-O-myristoyl mesquitol], the melting point was determined as 83 °C. For the same compound, the “α-glucosidase inhibitory potency compared with the standard drug 1-deoxy nojirimycin” value with yeast α-glucosidase (listed as myristoyl ester of (−) mesquitol) was “more potent α-glucosidase inhibitors than the standard drug 1-deoxy nojirimycin; also recorded: more potent than the standard α-glucosidase inhibitor 1-deoxy nojirimycin”. The compound further registered a concentration for half-maximal inhibition (IC50) on yeast α-glucosidase of 12.6 µM.
